According to patent publication US20240400572A1, “COMPOUNDS AND METHODS FOR TREATING CANCERS THAT ARE MGMT DEFICIENT REGARDLESS OF MMR STATUS” (Yale University, priority 2021, published 2024):

How the values were obtained:
[1] = tested on: genomic DNA of LN229 MGMT−/MMR+ cells; test: Genomic DNA denaturing gel electrophoresis; type: cell-based, human; conditions: 200 μM, 24 h
Description: Genomic DNA Denaturing Gel Electrophoresis. Cells were trypsinized, washed with 1×PBS, and stored at −80° C. prior to processing. Genomic DNA was extracted with the DNeasy Blood & Tissue Kit (Qiagen) per kit protocol. A 0.7% agarose gel was prepared in 100 mM NaCl-2 mM EDTA (pH 8) and soaked in 40 mM NaOH-1 mM EDTA running buffer for 2 h. Genomic DNA (400 ng/well) was then loaded in 1× BlueJuice loading buffer (Invitrogen) and subjected to electrophoresis at 2 V/cm for 30 min, followed by 3 V/cm for 2 h. The gel was neutralized in 150 mM NaCl-100 mM Tris (pH 7.4) for 30 min, twice, and then stained with 1× SYBR Gold in 150 mM NaCl-100 mM Tris (pH 7.4) for 90 min. Imaging was performed on a ChemiDoc XRS+ Molecular Imager (Bio-Rad).

[2] = tested on: γH2AX, 53BP1 and pRPA foci in LN229 MGMT+/−, MMR+/− cells; test: Immunofluorescence foci assays; type: cell-based, human; conditions: 20 μM; for γH2AX, 53BP1 and pRPA foci formation (in words): 2 to 48 h; for DDR foci across cell cycle phases (in words): 48 h, G1, S and G2 phases
Description: Immunofluorescence Foci Assays. High-throughput immunofluorescence foci assays were performed at the Yale Center for Molecular Discovery (YCMD). Cells were seeded at 2000 cells/well in black polystyrene flat bottom 384-well plates (Greiner Bio-One) and allowed to adhere overnight. Compound addition was performed utilizing a Labcyte Echo 550 liquid handler (Beckman Coulter), with 6 replicates per test condition and 12 replicates per control condition. Following drug incubation, cells were fixed and stained for phospho-SER139-H2AX (γH2AX), 53BP1, or phospho-SER33-RPA2 (pRPA) as follows.
γH2AX protocol: Cells were fixed with 4% paraformaldehyde in 1×PBS for 15 min, washed twice with 1×PBS, incubated in extraction buffer (0.5% Triton X-100 in 1×PBS) for 10 min, washed twice with 1×PBS, and incubated in blocking buffer (Blocker Casein in PBS, Thermo Scientific+5% goat serum, Life Technologies) for 1 h. Mouse anti-phospho-histone H2A.X (Ser139) antibody (clone JBW301, Millipore, 05-636) was added 1/1000 in blocking buffer at 4° C. overnight. After washing with 1×PBS, cells were incubated with goat anti-mouse IgG (H+L) highly cross-adsorbed secondary antibody, Alexa Fluor 647 (Invitrogen, A-21236) 1/500 and with 1 μg/mL Hoechst nucleic acid dye in blocking buffer for 2 h, and then washed with 1×PBS.
53BP1 protocol: Cells were fixed with 4% paraformaldehyde+0.02% Triton X-100 in 1×PBS for 20 minutes, washed twice with 1×PBS, and incubated in blocking buffer (10% FBS, 0.5% Triton X-100 in 1×PBS) for 1 h. Rabbit anti-53BP1 antibody (Novus Biologicals, NB100-904) was added 1/1000 in blocking buffer at 4° C. overnight. After washing with 1×PBS, cells were incubated with goat anti-rabbit IgG (H+L) highly cross-adsorbed secondary antibody, Alexa Fluor 647 (Invitrogen, A-21245) 1/500 and with 1 μg/mL Hoechst nucleic acid dye in blocking buffer for 2 h, and then washed with 1×PBS.
pRPA protocol: Cells were washed twice with 1×PBS on ice, incubated in extraction buffer (0.5% Triton X-100 in 1×PBS) for 5 min on ice, fixed with 3% paraformaldehyde+2% sucrose in 1×PBS for 15 min at 23° C., incubated again in extraction buffer for 5 min on ice, and incubated in blocking buffer (2% BSA, 10% milk, 0.1% Triton X-100 in 1×PBS) for 1 h at 23° C. Rabbit anti-phospho-RPA2 (S33) antibody (Bethyl Laboratories, A300-246A) was added 1/1000 in blocking buffer at 4° C. overnight. […]
Additional small scale immunofluorescence assays used for extended time course analysis of γH2AX foci were performed in Millicell EZSLIDE 8-well chamber slides (Millipore). […] Imaging was performed on a Keyence BZ-X800 fluorescence microscope at 40× magnification. […]

| Structure (SMILES) | crosslinked genomic DNA (in words) [1] | γH2AX, 53BP1 and pRPA foci formation (in words) [2] | DDR foci across cell cycle phases (in words) [2] |
| --- | --- | --- | --- |
| NC(=O)c1ncn2c(=O)n(CCF)nnc12 [KL-50, 3-(2-fluoroethyl)-4-oxo-3H,4H-imidazo[4,3-d][1,2,3,5]tetrazine-8-carboxamide] | presence of crosslinked DNA | maximal foci response at 48 h, specifically in MGMT− cells and irrespective of MMR status | foci formation primarily in the S- and G2-phases of the cell cycle |
| Cn1nnc2c(C(N)=O)ncn2c1=O [TMZ, temozolomide, reference compound] | no evidence of ICL induction | comparable response in MGMT− cells, but this was abolished in the absence of functional MMR | did not observe foci induction or micronuclei formation in MGMT−/MMR− cells |
